The results in this text go back to patent US20100197797A1 (priority 2009, published 2010).

Data set [1] has as its system healthy subjects. Briefly: Placebo-controlled clinical pharmacology study, blood pressure at supratherapeutic doses. Format: in vivo, human. The note with it: 300 mg twice daily, 12 hour steady state dosing interval.
The subject of data set [2] is healthy subjects. Nature of the data set: QTcF interval study, placebo- and positive-controlled. Format: in vivo, human. The note with it: 600 mg/day. An excerpt:
After baseline and placebo adjustment, the maximum mean QTcF change was 8 ms (2-sided 90% CI, 3-12 ms).

In the next data set the test system is patients. Nature of the data set: Spontaneous / postmarketing reports. Format: in vivo, human. Conditions: post-marketing, multiple drugs but also milnacipran hydrochloride only. The source says:
However, because these adverse reactions were reported voluntarily from a population of uncertain size, it is not always possible to reliably estimate their frequency or establish a causal relationship to drug exposure.

Another data set is described as follows: Human pharmacokinetics. Conditions: in vivo. On the procedure: The pharmacokinetic parameters described herein include area under the plasma concentration-time curve (AUC0-t and AUC0-∞), maximum plasma concentration (Cmax), time of maximum plasma concentration (Tmax) and terminal elimination half-life (T1/2). The time of maximum concentration, Tmax, is determined as the time corresponding to Cmax. Area under the plasma concentration-time curve up to the time corresponding to the last measurable concentration (AUC0-t) is calculated by numerical integration using the linear trapezoidal rule as follows: […]

In the next data set the test system is plasma proteins. Nature of the data set: Plasma protein binding. Format: in vitro ADME.
The nature of the next data set: Solubility. Format: physicochemical.
The next data set concerns humans. Briefly: Acute overdose in clinical trials. Format: in vivo, human. Conditions: up to 1000 mg, alone or in combination with other drugs. An excerpt:
There is limited clinical experience with milnacipran hydrochloride overdose in humans.

Consider `CCN(CC)C(=O)C1(c2ccccc2)CC1CN.Cl` (racemic) [milnacipran hydrochloride, (±)-[1R(S),2S(R)]-2-(aminomethyl)-N,N-diethyl-1-phenylcyclopropanecarboxamide hydrochloride], for which the “mean increase in supine diastolic blood pressure” value in the data set with healthy subjects [1] is given as “up to 11.5 mm Hg”. The “mean increase in supine systolic blood pressure” value with healthy subjects [1] was “up to 10.0 mm Hg”. In addition, in the data set on healthy subjects [2], the “clinical significance of QTcF increase” value is reported as “not considered to be clinically significant”. The “maximum mean QTcF change” value in the data set on healthy subjects [2] (after baseline and placebo adjustment (2-sided 90% CI, 3-12 ms)) was 8 ms. For the same molecule, in the data set with patients, the “outcome of acute overdoses” value is listed as “fatal outcomes have been reported”. The “effect of food on absorption” value in the data set “Human pharmacokinetics” was “not affected by food”. Moreover, the plasma protein binding with plasma proteins amounted to 13%. In addition, the solubility entry in “Solubility” (chloroform) was “freely soluble”; in the data set “Solubility” (diethyl ether), “sparingly soluble”; in “Solubility” (ethanol), “freely soluble”; in the data set “Solubility” (methanol), “freely soluble”; in the data set “Solubility” (methylene chloride), “freely soluble”; in the data set “Solubility” (water), “freely soluble”. For the same molecule, the “outcome of acute ingestions” value in the data set with humans was “none being fatal”.
